Experimental findings from ChEMBL document CHEMBL5550106, “Recent advances in the exploration of oxazolidinone scaffolds from compound development to antibacterial agents and other bioactivities” (Eur J Med Chem, 2024) are described below.

In brackets after ≈: the same amount, converted by molar mass.

What is called MIC is the smallest concentration in the dilution series that meets the test's criterion for growth inhibition.

Data set [1] is described as follows: Intrinsic clearance in mouse liver microsomes. The class given is ADME, Microsome. The conditions noted are these: read-out: CLH. Background: Liver microsomes are a subcellular fraction often used to study metabolism.
For data set [2], the system named is Staphylococcus aureus. Kind of data set: Antibacterial activity against methicillin-sensitive Staphylococcus aureus assessed as reduction in microbial growth by CLSI based broth microdilution method. The class given is functional.
In data set [3] the test system is Staphylococcus aureus. In words: Antibacterial activity against Staphylococcus aureus HG001 assessed as reduction in bacterial cell growth incubated for 16 to 18 hrs by two-fold serial dilution method. The data set is classed as functional. As to conditions: time 16-18 hrs.
Data set [4] deals with Pseudomonas aeruginosa. In words: Antibacterial activity against Pseudomonas aeruginosa PAO1 assessed as bacterial growth inhibition incubated for 24 hrs by microtiter plate reader analysis. The class given is functional.
Data set [5] deals with Pseudomonas aeruginosa. In words: Antibacterial activity against wild-type Pseudomonas aeruginosa PAO1 incubated for 24 hrs by broth microdilution method. The class given is functional. Background: In broth dilution the organism is exposed to a series of concentrations in liquid medium.
For data set [6], the system named is Mycobacterium tuberculosis. In words: Antitubercular activity against XDR Mycobacterium tuberculosis X24 assessed as bacterial growth inhibition measured for 9 days. The class given is functional. The conditions noted are these: X24, 216 h, time 9 day.
The test system of data set [7] is Staphylococcus aureus. Kind of data set: Antimicrobial activity against […] Staphylococcus aureus ATCC 25923 assessed as reduction in cell growth by microdilution method. The class given is functional.
Data set [8] has as its system Enterococcus faecalis. In words: Antibacterial activity against vancomycin-resistant Enterococcus faecalis NR 31912 assessed as inhibition of bacterial growth. The class given is functional.
For data set [9], the system named is Staphylococcus aureus. Kind of data set: Antibacterial activity against Methicillin-sensitive Staphylococcus aureus ATCC 9144 assessed as reduction in bacterial growth. The data set is classed as functional.
The subject of data set [10] is Staphylococcus aureus. In words: Antibacterial activity against Methicillin-resistant Staphylococcus aureus assessed as inhibition of bacterial growth. The data set is classed as functional.
Data set [11] has as its system Staphylococcus epidermidis. Kind of data set: Antibacterial activity against Methicillin-resistant Staphylococcus epidermidis assessed as inhibition of bacterial growth. The class given is functional.
For data set [12], the system named is Mycobacterium tuberculosis. Kind of data set: Antibacterial activity against Mycobacterium tuberculosis H37Rv assessed as bacterial growth inhibition incubated for 8 days by resazurin assay. The conditions noted are these: 192 h, time 8 day. The data set is classed as functional.
For data set [13], the system named is Staphylococcus aureus. In words: Antibacterial activity against Methicillin-resistant Staphylococcus aureus ATCC 33592 assessed as reduction in bacterial growth. The class given is functional.
Data set [14] deals with Enterococcus faecium. In words: Antibacterial activity against vancomycin-resistant Enterococcus faecium assessed as reduction in microbial growth CLSI-based double dilution method. The data set is classed as functional.
In data set [15] the test system is Staphylococcus aureus. In words: Antibacterial activity against methicillin-sensitive Staphylococcus aureus assessed as reduction in bacterial growth incubated for 24 hrs by broth microdilution method. The class given is functional.
The subject of data set [16] is Haemophilus influenzae. Kind of data set: Antibacterial activity against Haemophilus influenzae assessed as bacterial growth inhibition. The data set is classed as functional.
Data set [17] has as its system Mycobacterium tuberculosis. In words: Antimycobacterial activity against Mycobacterium tuberculosis H37Rv assessed as bacterial growth inhibition incubated for 7 days by fluorescence based analysis. The class given is functional. The conditions noted are these: 168 h, time 7 day.
For data set [18], the system named is Enterococcus faecalis. Kind of data set: Antibacterial activity against vancomycin-resistant Enterococcus faecalis incubated for 18 hrs by broth microdilution method. The class given is functional.
Data set [19] deals with Mycobacterium tuberculosis. Kind of data set: Antimycobacterial activity against Mycobacterium tuberculosis H37Rv assessed as reduction in bacterial growth measured for 7 days by resazurin dye based assay. The data set is classed as functional. The conditions noted are these: 168 h, time 7 day. Background: Resazurin is reduced to fluorescent resorufin, in cell work by metabolically active cells.

Data set [20] relates to Staphylococcus aureus. Kind of data set: Antimicrobial activity against […] Staphylococcus aureus ATCC 25923 assessed as reduction in microbial growth. The data set is classed as functional.
Data set [21] concerns Staphylococcus aureus. Kind of data set: Antimicrobial activity against Methicillin-sensitive Staphylococcus aureus ATCC 29213 assessed as reduction in bacterial growth. The data set is classed as functional.
Data set [22] has as its system Staphylococcus aureus. Kind of data set: Antibacterial activity against Methicillin-resistant Staphylococcus aureus assessed as fold reduction in bacterial growth incubated for 14 to 16 hrs by microbroth dilution method. The data set is classed as functional. The conditions noted are these: time 14-16 hrs.

For the compound `CC(=O)NC[C@H]1CN(c2ccc(N3CCC(Nc4ccc(Br)cc4)CC3)c(F)c2)C(=O)O1`, the CLint scaled in data set [1] worked out at 3.46 mL/min/kg.
As for `C[C@H](NC(=O)[C@H](NC(=O)OCC1c2ccccc2-c2ccccc21)[C@H](C)OC(C)(C)C)[C@H]1CN(c2ccc(N3CCOCC3)c(F)c2)C(=O)O1`, in data set [2], the MIC is 6.25 µg/mL.
`CC(=O)NCC1CN(c2ccc(N3CCN(C(=O)CCOCCOCn4cc(CNC(=O)C(CCCCNC(=O)c5cccc(O)c5O)NC(=O)c5cccc(O)c5O)nn4)CC3)c(F)c2)C(=O)O1` (stereo not drawn): the MIC in [3] is above 64 µM.
Regarding `CC(=O)NCC1CN(c2ccc(N3CCN(C(=O)COn4cc(CNC(=O)C(CNC(=O)C(CNC(=O)CNC(=O)c5cccc(O)c5O)NC(=O)c5cccc(O)c5O)NC(=O)c5cccc(O)c5O)nn4)CC3)c(F)c2)C(=O)O1` (stereo not drawn), the results for the MIC in [4] and in data set [5] were 16 µM (≈ 18 µg/mL) and above 64 µM, respectively.
For the compound `CC(=O)NCC1CN(c2ccc(N3CCN(C(=O)COn4cc(CNC(=O)C(CCCCNC(=O)c5cccc(O)c5O)NC(=O)c5cccc(O)c5O)nn4)CC3)c(F)c2)C(=O)O1` (stereo not drawn), the MIC in [3] was above 64 µM.
With `CC(=O)NCC1CN(c2ccc(N3CCN(C(=O)CCOCCOCn4cc(CNC(=O)C(CNC(=O)C(CNC(=O)CNC(=O)c5cccc(O)c5O)NC(=O)c5cccc(O)c5O)NC(=O)c5cccc(O)c5O)nn4)CC3)c(F)c2)C(=O)O1` (stereo not drawn), the MIC was 64 µM (≈ 76.8 µg/mL) in data set [4] and above 64 µM in data set [5].
For the compound `CN1CCN(c2ccc(N3C[C@H](CO)OC3=O)cc2F)C=N1` [DELPAZOLID], the MIC90 amounted to 0.5 µg/mL (≈ 1.62 µM) in data set [6], 1 µg/mL in data set [7], 0.5 µg/mL (≈ 1.62 µM) in data set [8] and 1 µg/mL (≈ 3.24 µM) in data set [9].
`CC(=O)NC[C@H]1CN(c2ccc(C(C)=O)cc2)C(=O)O1` [DUP-721]: the MIC in data set [10] and in [11] was 4 µg/mL (≈ 14.5 µM) throughout.
As to `O=C([C@@H](O)CO)N1CC=C(c2c(F)cc(N3C[C@H](COc4ccon4)OC3=O)cc2F)CC1` [POSIZOLID], the MIC90 in data set [12] came to 1 µg/mL (≈ 2.15 µM).
In the case of `CC(=O)NC[C@H]1CN(c2ccc(-c3ccc(CNCc4cnn[nH]4)cc3)c(F)c2)C(=O)O1` [RADEZOLID], the MIC90 amounted to 0.5 µg/mL (≈ 1.14 µM) in [13], 0.5 µg/mL in data set [14], 0.5 µg/mL (≈ 1.14 µM) in data set [15] and 0.5 µg/mL (≈ 1.14 µM) in [16].
Turning to `CC(=O)NC[C@H]1CN(c2ccc(N3CCSCC3)c(F)c2)C(=O)O1` [SUTEZOLID], the MIC in [17] is 0.03 µg/mL (≈ 0.0849 µM).
`Cn1nnc(-c2ccc(-c3ccc(N4C[C@H](COP(=O)(O)O)OC4=O)cc3F)cn2)n1` [TEDIZOLID PHOSPHATE]: the MIC90 amounted to 0.12 µg/mL in data set [18], 0.125 µg/mL in data set [19], 0.12 µg/mL in data set [20] and 0.12 µg/mL in data set [21].
Consider `Cn1nnc(-c2ccc(-c3ccc(N4C[C@H](CO)OC4=O)cc3F)cn2)n1` [TEDIZOLID], for which the MIC90 in data set [18] is 0.5 µg/mL (≈ 1.35 µM); in [20], 0.25 µg/mL; in data set [21] it was 0.25 µg/mL (≈ 0.675 µM). Also, the “fold change (FC)” value in data set [22] is given as 4.
